# Assay results reported in article PMC3125419 (Journal of acquired immune deficiency syndromes (1999), 2011).
# Where two headings read alike, the source gives them in different places. Marks after values point to notes of the source that are not given here.
# How the values were obtained:
# [1] = cited from earlier work
# [2] = human, in vivo
# clinical [3] = conditions: female, human, in vivo
# clinical [4] = conditions: female, human, in vivo; remark: listed apart in the source
# [5] = One-compartment model with first-order absorption and elimination; assay type: in vivo, human; conditions: median
# HIV-1 RNA = assay: Plasma viral load and infant HIV infection status; assay type: in vivo, human; conditions: for Undetectable (<20, 50, 75 or 400) plasma HIV-1 RNA, N (%): atazanavir/ritonavir-based regimen
# [6] = female, human, in vivo
# [7] = with tenofovir, median (range), N=19
smiles,measurement,setting,value
CC(C)(C)NC(=O)[C@@H]1CN(Cc2cccnc2)CCN1C[C@@H](O)C[C@@H](Cc1ccccc1)C(=O)N[C@H]1c2ccccc2C[C@H]1O [indinavir],AUC lower during pregnancy compared to postpartum,[1]; unboosted,68%
CC(C)c1nc(CN(C)C(=O)N[C@H](C(=O)N[C@@H](Cc2ccccc2)C[C@H](O)[C@H](Cc2ccccc2)NC(=O)OCc2cncs2)C(C)C)cs1 [Ritonavir],Tmax,[2]; female,4 (2 – 4) hr
same,Vd/F,[2]; female,34.2 L
same,"AUC0-24, C0, Cmax and C24 during the 3rd trimester compared to postpartum",[2],decreased
same,CL/F,[2],6.8 L/h
same,Cl/F during the 3rd trimester compared to postpartum,[2],increased
same,Tmax,clinical [3],6 h
CC(C)(C)NC(=O)[C@@H]1C[C@@H]2CCCC[C@@H]2CN1C[C@@H](O)[C@H](Cc1ccccc1)NC(=O)[C@H](CC(N)=O)NC(=O)c1ccc2ccccc2n1 [saquinavir],pregnant subjects achieving adequate trough concentrations,[1]; saquinavir 1200 mg/ritonavir 100 mg once daily,93%
Cc1cccc(C)c1OCC(=O)N[C@@H](Cc1ccccc1)[C@@H](O)C[C@H](Cc1ccccc1)NC(=O)[C@H](C(C)C)N1CCCNC1=O [lopinavir],AUC reduction during the third trimester,[1]; capsules at standard dosing (lopinavir 400 mg/ritonavir 100 mg twice daily),50%
COC(=O)N[C@H](C(=O)N[C@@H](Cc1ccccc1)[C@@H](O)CN(Cc1ccc(-c2ccccn2)cc1)NC(=O)[C@@H](NC(=O)OC)C(C)(C)C)C(C)(C)C [Atazanavir],Kp,clinical [4],0.18
same,concentration in cord blood,clinical [4],0.16 (<0.047 – 0.42) mcg/mL
same,concentration in maternal delivery plasma,clinical [4],0.83 (0.11 - 2.36) mcg/mL
same,ratio of concentration in cord blood to that in maternal delivery plasma,clinical [4],0.18 (0.04 – 0.45)
same,additional reduction of AUC0-24 and Cmin when coadministered with tenofovir,[2]; female,25%
same,Tmax,clinical [3],4 h
same,"CL/F, one-compartment","[5]; with tenofovir, postpartum",7.2 L/h
same,"CL/F, one-compartment","[5]; with tenofovir, second trimester",14.5 L/h
same,"CL/F, one-compartment","[5]; with tenofovir, third trimester",9.9 L/h
same,"CL/F, one-compartment","[5]; without tenofovir, postpartum",4.9 L/h
same,"CL/F, one-compartment","[5]; without tenofovir, second trimester",3.1 L/h
same,"CL/F, one-compartment","[5]; without tenofovir, third trimester",6.7 L/h
same,infants HIV-uninfected,"HIV-1 RNA; 38 infants, status indeterminate for one",Thirty-seven
same,"Undetectable (<20, 50, 75 or 400) plasma HIV-1 RNA, N (%)","HIV-1 RNA; delivery, with tenofovir",17 (89%) ^‡
same,"Undetectable (<20, 50, 75 or 400) plasma HIV-1 RNA, N (%)","HIV-1 RNA; delivery, with tenofovir, listed as atazanavir",17 of 19
same,"Undetectable (<20, 50, 75 or 400) plasma HIV-1 RNA, N (%)","HIV-1 RNA; delivery, without tenofovir",11 (69%) ^†
same,"Undetectable (<20, 50, 75 or 400) plasma HIV-1 RNA, N (%)","HIV-1 RNA; delivery, without tenofovir, listed as atazanavir",11 of 16
same,"Undetectable (<20, 50, 75 or 400) plasma HIV-1 RNA, N (%)","HIV-1 RNA; postpartum, with tenofovir",14 (100%) ^++
same,"Undetectable (<20, 50, 75 or 400) plasma HIV-1 RNA, N (%)","HIV-1 RNA; postpartum, without tenofovir",8 (73%) ^+
same,"Undetectable (<20, 50, 75 or 400) plasma HIV-1 RNA, N (%)","HIV-1 RNA; third trimester, with tenofovir",15 (79%) ^§
same,"Undetectable (<20, 50, 75 or 400) plasma HIV-1 RNA, N (%)","HIV-1 RNA; third trimester, without tenofovir",13 (72%) ^**
same,Postpartum plasma HIV-1 RNA,"HIV-1 RNA; with tenofovir, median (range), N=14",<75 (<20 - <400) copies/mL
same,Delivery plasma HIV-1 RNA,HIV-1 RNA; [7],<75 (<20 – 116) copies/mL
same,third trimester plasma HIV-1 RNA,HIV-1 RNA; [7],<50 (<20 – 1630) copies/mL
same,Delivery plasma HIV-1 RNA,"HIV-1 RNA; without tenofovir, median (range), N=16",<62.5 (<50 - 29933) copies/mL
same,third trimester plasma HIV-1 RNA,"HIV-1 RNA; without tenofovir, median (range), N=18",<62.5 (<50 - 19314) copies/mL
same,Grade 3 or 4 hyperbilirubinemia,[6],14 subjects
same,Grade 3 or 4 toxicities,[6],16 subjects
same,estimated 10th percentile AUC0-24,"[1]; non-pregnant adult populations, standard dose",29400 ng·h/mL
same,mean AUC,[1]; non-pregnant historical controls taking the standard dose,57000 ng·h/mL
same,geometric mean AUC,[1]; nonpregnant HIV infected adults,46100 ng·h/mL
same,AUC,"[1]; postpartum, ref Eley, 10",57200 ng·h/mL
same,mean AUC,"[1]; postpartum, ref Ripamonti, 9",30500 ng·h/mL
same,geometric mean AUC,"[1]; third trimester, 12 women, ref Eley et al, 10",26600 ng·h/mL
